Experimental findings from ChEMBL document CHEMBL5291721, “A preclinical secondary pharmacology resource illuminates target-adverse drug reaction associations of marketed drugs” (Nat Commun, 2023) are described below.

Among the targets are Histamine H3 receptor (Homo sapiens, UniProt Q9Y5N1); D(1A) dopamine receptor (Homo sapiens, UniProt P21728); Mu-type opioid receptor (Homo sapiens, UniProt P35372).
The target of assay [1] is 5-hydroxytryptamine receptor 2A (Homo sapiens, UniProt P28223). The assay is classed as functional, cell-based.
The target in assay [2] is T1, Alpha-1A adrenergic receptor (Homo sapiens, UniProt P35348).
T1 sequence (P35348 whole entry): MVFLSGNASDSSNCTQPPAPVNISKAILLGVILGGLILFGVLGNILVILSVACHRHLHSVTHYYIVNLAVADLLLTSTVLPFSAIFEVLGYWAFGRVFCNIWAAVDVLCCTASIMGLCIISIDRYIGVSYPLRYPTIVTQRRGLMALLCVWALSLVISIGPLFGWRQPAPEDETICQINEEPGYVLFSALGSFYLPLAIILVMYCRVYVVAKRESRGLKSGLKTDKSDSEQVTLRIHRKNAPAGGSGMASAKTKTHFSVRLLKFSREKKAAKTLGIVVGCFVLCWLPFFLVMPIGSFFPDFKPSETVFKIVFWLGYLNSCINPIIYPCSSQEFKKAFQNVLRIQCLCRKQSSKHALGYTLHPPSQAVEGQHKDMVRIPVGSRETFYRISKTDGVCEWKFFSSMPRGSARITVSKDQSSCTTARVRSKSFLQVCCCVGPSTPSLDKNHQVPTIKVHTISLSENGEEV
The assay is classed as functional, cell-based.

The target of assay [3] is T2, Neuropeptide Y receptor type 1 (Homo sapiens, UniProt P25929).
T2 sequence (P25929 whole entry): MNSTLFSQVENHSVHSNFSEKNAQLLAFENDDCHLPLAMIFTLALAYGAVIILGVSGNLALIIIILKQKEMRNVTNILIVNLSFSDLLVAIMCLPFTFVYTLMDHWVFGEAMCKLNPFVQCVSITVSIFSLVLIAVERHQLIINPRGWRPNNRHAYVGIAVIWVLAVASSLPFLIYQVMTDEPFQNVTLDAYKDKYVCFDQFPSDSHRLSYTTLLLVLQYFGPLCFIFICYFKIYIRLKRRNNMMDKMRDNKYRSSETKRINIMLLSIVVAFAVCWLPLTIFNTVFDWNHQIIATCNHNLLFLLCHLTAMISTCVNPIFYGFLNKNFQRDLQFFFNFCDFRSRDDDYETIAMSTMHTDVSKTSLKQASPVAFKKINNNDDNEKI

Another assay addresses T3, Thromboxane A2 receptor (Homo sapiens, UniProt P21731).
T3 sequence (P21731 whole entry): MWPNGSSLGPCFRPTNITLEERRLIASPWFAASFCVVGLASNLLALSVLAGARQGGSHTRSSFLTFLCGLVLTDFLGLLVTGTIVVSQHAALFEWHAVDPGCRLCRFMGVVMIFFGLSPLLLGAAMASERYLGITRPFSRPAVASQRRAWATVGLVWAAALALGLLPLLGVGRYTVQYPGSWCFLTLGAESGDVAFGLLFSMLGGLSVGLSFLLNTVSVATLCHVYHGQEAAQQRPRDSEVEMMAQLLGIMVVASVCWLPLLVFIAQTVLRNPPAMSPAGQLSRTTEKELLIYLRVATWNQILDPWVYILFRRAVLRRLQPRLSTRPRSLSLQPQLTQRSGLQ

In the next assay the target is T4, Adenosine receptor A3 (Homo sapiens, UniProt P0DMS8).
T4 sequence (P0DMS8 whole entry): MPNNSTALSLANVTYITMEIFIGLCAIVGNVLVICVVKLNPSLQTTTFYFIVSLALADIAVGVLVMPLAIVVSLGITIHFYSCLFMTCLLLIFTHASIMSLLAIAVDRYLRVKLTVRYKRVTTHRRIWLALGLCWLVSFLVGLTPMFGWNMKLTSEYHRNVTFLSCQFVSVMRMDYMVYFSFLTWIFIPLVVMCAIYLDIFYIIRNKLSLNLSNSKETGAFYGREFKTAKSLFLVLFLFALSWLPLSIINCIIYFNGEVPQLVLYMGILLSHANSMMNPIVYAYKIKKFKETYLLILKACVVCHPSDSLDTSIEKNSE

The target of assay [4] is T5, 5-hydroxytryptamine receptor 1A (Homo sapiens, UniProt P08908).
T5 sequence (P08908 whole entry): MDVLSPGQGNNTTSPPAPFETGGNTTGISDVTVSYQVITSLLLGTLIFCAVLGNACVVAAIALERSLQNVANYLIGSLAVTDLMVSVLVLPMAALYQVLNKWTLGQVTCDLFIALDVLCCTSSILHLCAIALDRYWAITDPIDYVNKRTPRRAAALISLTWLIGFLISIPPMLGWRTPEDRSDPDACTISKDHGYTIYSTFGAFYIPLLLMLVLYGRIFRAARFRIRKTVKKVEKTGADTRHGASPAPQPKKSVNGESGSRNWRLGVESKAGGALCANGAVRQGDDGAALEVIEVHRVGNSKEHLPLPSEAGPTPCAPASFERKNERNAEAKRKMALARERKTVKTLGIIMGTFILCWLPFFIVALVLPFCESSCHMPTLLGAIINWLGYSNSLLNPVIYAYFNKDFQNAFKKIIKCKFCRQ

Assay [5] has as its target T6, Amine oxidase [flavin-containing] A (Homo sapiens, UniProt P21397).
T6 sequence (P21397 whole entry): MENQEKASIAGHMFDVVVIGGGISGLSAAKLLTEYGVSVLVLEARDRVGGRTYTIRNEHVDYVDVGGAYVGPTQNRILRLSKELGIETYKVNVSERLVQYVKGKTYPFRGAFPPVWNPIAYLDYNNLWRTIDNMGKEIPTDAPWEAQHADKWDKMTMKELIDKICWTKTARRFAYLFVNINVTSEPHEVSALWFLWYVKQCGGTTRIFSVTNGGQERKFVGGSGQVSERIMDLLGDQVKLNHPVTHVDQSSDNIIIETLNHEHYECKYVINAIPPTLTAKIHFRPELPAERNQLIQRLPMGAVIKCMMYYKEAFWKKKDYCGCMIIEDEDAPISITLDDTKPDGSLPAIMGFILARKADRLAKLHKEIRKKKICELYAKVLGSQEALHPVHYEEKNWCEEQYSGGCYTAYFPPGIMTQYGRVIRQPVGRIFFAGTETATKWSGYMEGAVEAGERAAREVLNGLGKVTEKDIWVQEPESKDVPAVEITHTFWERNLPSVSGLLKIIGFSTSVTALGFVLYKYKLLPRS
The assay is classed as functional.

The target of assay [6] is Sodium-dependent dopamine transporter (Homo sapiens, UniProt Q01959).

Bounds are passed on as bounds.

A word on the AC50: it is the concentration at which the activity in the assay is half-maximal. A lower AC50 goes with greater potency.
Note: assay procedure not described here.

Sequence of Histamine H3 receptor (Q9Y5N1 whole entry): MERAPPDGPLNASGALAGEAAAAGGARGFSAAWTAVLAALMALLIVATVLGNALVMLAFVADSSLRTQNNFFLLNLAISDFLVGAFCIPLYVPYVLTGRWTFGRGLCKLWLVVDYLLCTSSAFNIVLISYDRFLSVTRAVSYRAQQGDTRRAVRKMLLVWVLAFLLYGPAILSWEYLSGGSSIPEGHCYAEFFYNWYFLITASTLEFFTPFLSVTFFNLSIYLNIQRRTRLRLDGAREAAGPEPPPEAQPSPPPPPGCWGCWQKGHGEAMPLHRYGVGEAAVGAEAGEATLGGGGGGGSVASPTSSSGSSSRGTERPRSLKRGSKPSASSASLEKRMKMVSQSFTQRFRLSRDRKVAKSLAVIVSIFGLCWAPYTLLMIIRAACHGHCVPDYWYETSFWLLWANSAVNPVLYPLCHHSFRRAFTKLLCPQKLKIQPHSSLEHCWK
Sequence of Sodium-dependent dopamine transporter (Q01959 whole entry): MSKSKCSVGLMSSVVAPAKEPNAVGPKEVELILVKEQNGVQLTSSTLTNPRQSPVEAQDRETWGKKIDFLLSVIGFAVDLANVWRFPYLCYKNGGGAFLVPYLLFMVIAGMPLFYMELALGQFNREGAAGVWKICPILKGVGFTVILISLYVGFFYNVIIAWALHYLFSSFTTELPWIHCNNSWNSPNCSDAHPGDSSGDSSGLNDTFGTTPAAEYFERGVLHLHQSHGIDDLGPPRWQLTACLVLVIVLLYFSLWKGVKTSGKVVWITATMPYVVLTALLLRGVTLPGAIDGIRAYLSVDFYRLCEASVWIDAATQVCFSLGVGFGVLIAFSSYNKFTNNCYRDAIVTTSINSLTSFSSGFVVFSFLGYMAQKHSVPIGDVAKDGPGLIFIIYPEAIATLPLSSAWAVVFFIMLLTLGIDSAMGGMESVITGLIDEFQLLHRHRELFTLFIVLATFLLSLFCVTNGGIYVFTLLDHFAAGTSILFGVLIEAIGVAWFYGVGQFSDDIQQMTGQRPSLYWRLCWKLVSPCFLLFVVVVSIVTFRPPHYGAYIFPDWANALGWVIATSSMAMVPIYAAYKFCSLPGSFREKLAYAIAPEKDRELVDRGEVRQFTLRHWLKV
Sequence of 5-hydroxytryptamine receptor 2A (P28223 whole entry): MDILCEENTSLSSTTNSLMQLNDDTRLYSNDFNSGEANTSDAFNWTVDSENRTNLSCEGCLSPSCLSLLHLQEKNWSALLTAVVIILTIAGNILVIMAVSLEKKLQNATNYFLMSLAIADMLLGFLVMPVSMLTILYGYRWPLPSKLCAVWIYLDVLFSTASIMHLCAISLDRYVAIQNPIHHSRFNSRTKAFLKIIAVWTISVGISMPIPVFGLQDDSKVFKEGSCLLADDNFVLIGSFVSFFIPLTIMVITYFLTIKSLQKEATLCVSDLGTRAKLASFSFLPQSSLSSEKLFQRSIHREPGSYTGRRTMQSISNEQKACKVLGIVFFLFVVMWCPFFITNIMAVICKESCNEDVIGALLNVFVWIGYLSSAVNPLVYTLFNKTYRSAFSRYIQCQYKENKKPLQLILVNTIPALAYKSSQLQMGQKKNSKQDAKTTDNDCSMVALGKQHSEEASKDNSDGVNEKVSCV
Sequence of Mu-type opioid receptor (P35372 whole entry): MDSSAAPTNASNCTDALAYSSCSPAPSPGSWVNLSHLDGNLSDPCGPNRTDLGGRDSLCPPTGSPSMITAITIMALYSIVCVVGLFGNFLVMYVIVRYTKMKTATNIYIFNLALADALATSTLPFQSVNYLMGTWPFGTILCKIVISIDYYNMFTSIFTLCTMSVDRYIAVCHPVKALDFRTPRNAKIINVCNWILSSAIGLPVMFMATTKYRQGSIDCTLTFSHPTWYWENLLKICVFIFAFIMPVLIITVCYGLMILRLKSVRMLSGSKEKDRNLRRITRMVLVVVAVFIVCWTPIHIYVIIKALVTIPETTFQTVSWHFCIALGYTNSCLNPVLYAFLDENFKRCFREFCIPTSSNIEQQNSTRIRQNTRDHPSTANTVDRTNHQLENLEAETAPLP
Sequence of D(1A) dopamine receptor (P21728 whole entry): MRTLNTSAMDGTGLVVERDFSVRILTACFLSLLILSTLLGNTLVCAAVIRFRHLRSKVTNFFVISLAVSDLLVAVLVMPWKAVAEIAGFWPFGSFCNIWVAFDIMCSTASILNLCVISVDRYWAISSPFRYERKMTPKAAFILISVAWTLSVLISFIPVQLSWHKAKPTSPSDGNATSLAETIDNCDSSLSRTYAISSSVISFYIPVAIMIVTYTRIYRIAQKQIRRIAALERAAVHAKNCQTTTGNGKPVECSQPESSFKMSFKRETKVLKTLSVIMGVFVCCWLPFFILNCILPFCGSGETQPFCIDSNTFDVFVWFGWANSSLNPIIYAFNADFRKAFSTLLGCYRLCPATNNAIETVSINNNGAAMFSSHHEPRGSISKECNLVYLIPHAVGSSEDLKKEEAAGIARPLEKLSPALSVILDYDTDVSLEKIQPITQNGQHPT

With `CCOCC(O)COc1ccc(NC(=O)CC[S+](C)C)cc1` (configuration not stated), the AC50 (on Histamine H3 receptor; in assay [1]; in assay [2]) was more than 30 µM in each case.

For `CCC[C@@]1(CCc2ccccc2)CC(O)=C([C@H](CC)c2cccc(NS(=O)(=O)c3ccc(C(F)(F)F)cn3)c2)C(=O)O1`, the AC50 on Histamine H3 receptor was more than 30 µM; in assay [1], 11 µM; in assay [2] it was 4.7 µM.

With `O=C(O)COC(=O)Cc1ccccc1Nc1c(Cl)cccc1Cl` [ACECLOFENAC], the AC50 at Histamine H3 receptor is more than 10 µM; in assay [3] it was more than 30 µM; in assay [2], more than 30 µM; on Thromboxane A2 receptor it was 2.54 µM.

As for `CN(C)CCc1c[nH]c2ccc(CS(=O)(=O)N3CCCC3)cc12` [ALMOTRIPTAN], the AC50 (on Histamine H3 receptor; in assay [1]; in [3]) was more than 30 µM throughout.

For the molecule `CC[N+](CC)(CCNC(=O)C(=O)NCC[N+](CC)(CC)Cc1ccccc1Cl)Cc1ccccc1Cl` [AMBENONIUM], the AC50 on Histamine H3 receptor was 21 µM; in assay [1], more than 30 µM; in assay [3] it was more than 30 µM; on Thromboxane A2 receptor it was more than 30 µM.

In the case of `NCCCNCCSP(=O)(O)O` [AMIFOSTINE], the AC50 (at Histamine H3 receptor; in [3]; at Thromboxane A2 receptor) was more than 30 µM each time.

As for `CN1CC2c3ccccc3Oc3ccc(Cl)cc3C2C1` (configuration not stated) [ASENAPINE], the AC50 on Histamine H3 receptor is more than 30 µM; in [1], 0.0002 µM; in assay [2], 0.0014 µM.

For the molecule `Cn1cnc2c(F)c(Nc3ccc(Br)cc3F)c(C(=O)NOCCO)cc21` [BINIMETINIB], the AC50 (at Histamine H3 receptor; in assay [1]; in assay [2]) was more than 30 µM each time.

In the case of `CN(C)CCOC(c1ccc(Cl)cc1)c1ccccn1` (configuration not stated) [CARBINOXAMINE], the AC50 was 3.5 µM on Histamine H3 receptor, more than 30 µM in [1], more than 30 µM in [3] and more than 30 µM in assay [2].

With `C[C@H](CCC(=O)O)[C@H]1CC[C@H]2[C@@H]3[C@H](O)C[C@@H]4C[C@H](O)CC[C@]4(C)[C@H]3CC[C@]12C` [CHENODIOL], the values for the AC50 (on Histamine H3 receptor; in assay [1]; in assay [2]) were more than 30 µM, more than 30 µM and 19 µM, respectively.

For `O=C(O)[C@H]1/C(=C/CO)O[C@@H]2CC(=O)N21` [CLAVULANIC ACID], the AC50 (at Histamine H3 receptor; in assay [1]; in assay [2]) was more than 30 µM throughout.

Turning to `CC(C)/N=c1\cc2n(-c3ccc(Cl)cc3)c3ccccc3nc-2cc1Nc1ccc(Cl)cc1` [CLOFAZIMINE], the AC50 (on Histamine H3 receptor; in assay [1]; in assay [3]; in assay [2]; at Thromboxane A2 receptor) was more than 30 µM each time.

For the molecule `O=P1(N(CCCl)CCCl)NCCCO1` (configuration not stated) [CYCLOPHOSPHAMIDE ANHYDROUS], the AC50 (at D(1A) dopamine receptor; at Adenosine receptor A3; at Mu-type opioid receptor; in assay [4]; in assay [5]; in assay [6]) was more than 30 µM in each case.

In the case of `O=c1[nH]cc(F)c(=O)[nH]1` [FLUOROURACIL], the AC50 (at Histamine H3 receptor; in assay [3]; at Mu-type opioid receptor; in assay [4]; in [5]; in [6]) was more than 30 µM in each case.

With `CCOC(=O)Nc1ccc(NCc2ccc(F)cc2)nc1N` [FLUPIRTINE], the AC50 at Histamine H3 receptor was more than 30 µM; in [1], more than 10 µM; in assay [3] it was more than 30 µM; at Thromboxane A2 receptor, 29 µM.

Consider `C[C@@H](O)[C@H]1C(=O)N2C(C(=O)O)=C(SCCN=CN)C[C@H]12` [IMIPENEM ANHYDROUS], for which the AC50 at Histamine H3 receptor was 180 µM; in [1], more than 300 µM; in [2] it was more than 300 µM.

On to `N[C@@H](Cc1cc(I)c(Oc2cc(I)c(O)c(I)c2)c(I)c1)C(=O)O` [LEVOTHYROXINE], for which the AC50 (on Histamine H3 receptor; in assay [1]; in assay [3]; in assay [2]) was more than 30 µM throughout.

`CC(=O)NC[C@H]1CN(c2ccc(N3CCOCC3)c(F)c2)C(=O)O1` [LINEZOLID]: the AC50 (on Histamine H3 receptor; in [3]; in [2]; on Thromboxane A2 receptor) was more than 30 µM each time.

As for `CS(=O)(=O)Nc1ccc([N+](=O)[O-])cc1Oc1ccccc1` [NIMESULIDE], the AC50 (at Histamine H3 receptor; in assay [3]; on D(1A) dopamine receptor; in assay [2]; at Mu-type opioid receptor; in assay [4]) was more than 30 µM in each case. For the same molecule, the figures for the AC50 (on Thromboxane A2 receptor; in assay [5]; in assay [6]) were 27 µM, more than 30 µM and 26.6 µM, respectively.

Consider `CO[C@@H]1[C@@H](OC(N)=O)[C@@H](O)[C@H](Oc2ccc3c(O)c(NC(=O)c4ccc(O)c(CC=C(C)C)c4)c(=O)oc3c2C)OC1(C)C` [NOVOBIOCIN], for which the AC50 (at Histamine H3 receptor; in assay [1]; in [2]) was more than 30 µM in each case.

Consider `COc1cc2c(cc1OC)C1CC(=O)C(CC(C)C)CN1CC2` (configuration not stated) [TETRABENAZINE], for which the AC50 (at Histamine H3 receptor; in assay [1]; in assay [2]) was more than 30 µM each time.

For `CC(C)(CO)c1cc2cc(NC(=O)C3(c4ccc5c(c4)OC(F)(F)O5)CC3)c(F)cc2n1C[C@@H](O)CO` [TEZACAFTOR], the AC50 was more than 30 µM at Histamine H3 receptor, 16 µM in assay [1] and more than 10 µM in assay [2].

On to `c1cnc2cc3c(cc2n1)[C@@H]1CNC[C@H]3C1` [VARENICLINE], for which the AC50 (on Histamine H3 receptor; in [1]; in assay [2]) was more than 30 µM each time.

For the molecule `Nc1c2c(nc3ccccc13)CCCC2O` (configuration not stated) [VELNACRINE], the AC50 (on Histamine H3 receptor; in [1]; in assay [2]) was more than 30 µM in each case.
